Laboratory results from US20030044861A1, “Method for diagnosing neoplasia” (priority 1998, published 2003).
pIC50: −log10 of the molar value.

What was measured:
HT-29 cells = test: Apoptosis and necrosis by morphology (acridine orange/ethidium bromide); format: cell-based; settings: HT-29 cells treated for six days
Description: In one type of apoptosis assay, suspected neoplastic cells are removed from a patient. The cells are then grown in culture in the presence or absence of a cGMP-specific PDE inhibitor. Apoptotic cells are measured by combining both the attached and “floating” compartments of the cultures. The protocol for treating tumor cell cultures with PDE inhibitors and related compounds to obtain a significant amount of apoptosis has been described in the literature. (See, Piazza, G. A., et al., Cancer Research, 55:3110-16, 1995, which is incorporated herein by reference). The novel features of this assay include collecting both floating and attached cells, identification of the optimal treatment times and dose range for observing apoptosis, and identification of optimal cell culture conditions.
Following treatment of neoplastic and normal cells with a test compound, cultures can be assayed for apoptosis and necrosis by fluorescent microscopy following labeling with acridine orange and ethidium bromide. The method for measuring apoptotic cell number has previously been described by Duke & Cohen, “Morphological And Biochemical Assays Of Apoptosis,” Current Protocols In Immunology, Coligan et al., eds. 3.17.1-3.17.16 (1992, which is incorporated herein by reference).
For example, floating and attached cells are collected, and aliquots of cells are centrifuged. The cell pellet is then resuspended in media and a dye mixture containing acridine orange and ethidium bromide. The mixture is then examined microscopically for morphological features of apoptosis.
Apoptotic and necrotic cell death was determined as previously described (Duke and Cohen, In: Current Protocols in Immunology, 3.17.1-3.17.16, New York, John Wiley and Sons, 1992). […] All data were collected from the same experiment.
The diagnostic method of this invention is used to determine whether a particular neoplasia is sensitive to treatment with a cGMP-specific PDE inhibitor. The apoptosis inducing activity for a series of phosphodiesterase inhibitors, specific for different PDEs, was determined. HT-29 cells were treated for 6 days with various inhibitors of phosphodiesterase. Apoptosis and necrosis were determined morphologically after acridine orange and ethidium bromide labeling in accordance with the assay described, supra.

HCT116, Colon = test: Growth inhibition of HCT116 cells; format: cell-based; settings: Homo sapiens, HCT-116
Description: (§1) Briefly, suspected neoplastic tissue samples are removed from a patient and grown as explants in vitro. The tissue samples are grown in the presence and absence of a cGMP-specific PDE inhibitor. After being grown in culture, cells are fixed by the addition of cold trichloroacetic acid. Protein levels are measured using the sulforhodamine B (SRB) colorimetric protein stain assay as previously described by Skehan, P., Storeng, R., Scudiero, D., Monks, A., McMahon, J., Vistica, D., Warren, J. T., Bokesch, H., Kenney, S., and Boyd, M. R., “New Colorimetric Assay For Anticancer-Drug Screening,” J. Natl. Cancer Inst. 82: 1107-1112, 1990, which is incorporated herein by reference.
(§2) To show the effectiveness of cGMP-specific PDE inhibition on various forms of neoplasia, (and, therefore, the usefulness of the diagnostic methods of this invention) cGMP-specific PDE inhibitors were tested on a number of neoplastic cell lines. […] Exisulind is defined as (Z)-5-fluoro-2-methyl-1-[[4-(methylsulfonyl)phenyl]methylene]indene-3-yl acetic acid or a salt thereof. The IC50 values were determined by the SRB assay.

[1] = target: T1, PDE peak A (PDE5) from SW-480 cells (Homo sapiens, UniProt O76074); test: cGMP hydrolysis by PDE peak A; format: biochemical
T1 construct: SW-480 cells are collected and homogenized; The homogenate is centrifuged, and the supernatant is loaded onto a DEAE-Trisacryl M column; endogenous in cells; host or cells: SW-480 human colon carcinoma cells, DEAE-Trisacryl M fraction peak A

[2] = tested on: PDE peak B (novel cGMP-specific PDE) from SW-480 cells; test: cGMP hydrolysis by PDE peak B; format: biochemical, human
A-427, Lung = test: Growth inhibition of A-427 cells; format: cell-based; settings: Homo sapiens
Description: as §1, §2

neoplastic cells = test: Apoptosis induction and growth inhibition in neoplastic cells (words only); format: cell-based

With `CSc1ccc(/C=C2/C(C)=C(CC(=O)O)c3cc(F)ccc32)cc1` [Sulindac sulfide] the “Apoptotic and necrotic cell death (FIG. 1, in words)” value (HT-29 cells) was “capable of causing apoptotic cell death without inducing neoplastic cell necrosis”, the pIC50 (HCT116, Colon) was 4.35 and the “Mode of inhibition of cGMP hydrolysis, peak A” value [1] was “competitively inhibit”. The “Mode of inhibition of cGMP hydrolysis, peak B” value [2] was “competitively inhibit”, the pIC50 (A-427, Lung) was 4.05 and the “Apoptosis induction in neoplastic cells (in words)” value (neoplastic cells) was “induce apoptosis in neoplastic cells”. For the same compound, the “Growth inhibition of neoplastic cells (in words)” value (neoplastic cells) was “precisely the opposite”.
